Data from ChEMBL document CHEMBL5696442, “Discovery of type II inhibitors of TGFβ-activated kinase 1 (TAK1) and mitogen-activated protein kinase kinase kinase kinase 2 (MAP4K2)” (J Med Chem, 2015).

Columns and labels:
[1] = target: T1, Mitogen-activated protein kinase kinase kinase 15 (Homo sapiens) (UniProt Q6ZN16); experiment: Inhibition of MAP3K15 Lys1 labeling site harbouring IAIKEIPERDSR in human A-375 cells at 0.05 uM by KiNativ Profiling analysis relative to control; format: cell-based
T1 sequence (whole entry): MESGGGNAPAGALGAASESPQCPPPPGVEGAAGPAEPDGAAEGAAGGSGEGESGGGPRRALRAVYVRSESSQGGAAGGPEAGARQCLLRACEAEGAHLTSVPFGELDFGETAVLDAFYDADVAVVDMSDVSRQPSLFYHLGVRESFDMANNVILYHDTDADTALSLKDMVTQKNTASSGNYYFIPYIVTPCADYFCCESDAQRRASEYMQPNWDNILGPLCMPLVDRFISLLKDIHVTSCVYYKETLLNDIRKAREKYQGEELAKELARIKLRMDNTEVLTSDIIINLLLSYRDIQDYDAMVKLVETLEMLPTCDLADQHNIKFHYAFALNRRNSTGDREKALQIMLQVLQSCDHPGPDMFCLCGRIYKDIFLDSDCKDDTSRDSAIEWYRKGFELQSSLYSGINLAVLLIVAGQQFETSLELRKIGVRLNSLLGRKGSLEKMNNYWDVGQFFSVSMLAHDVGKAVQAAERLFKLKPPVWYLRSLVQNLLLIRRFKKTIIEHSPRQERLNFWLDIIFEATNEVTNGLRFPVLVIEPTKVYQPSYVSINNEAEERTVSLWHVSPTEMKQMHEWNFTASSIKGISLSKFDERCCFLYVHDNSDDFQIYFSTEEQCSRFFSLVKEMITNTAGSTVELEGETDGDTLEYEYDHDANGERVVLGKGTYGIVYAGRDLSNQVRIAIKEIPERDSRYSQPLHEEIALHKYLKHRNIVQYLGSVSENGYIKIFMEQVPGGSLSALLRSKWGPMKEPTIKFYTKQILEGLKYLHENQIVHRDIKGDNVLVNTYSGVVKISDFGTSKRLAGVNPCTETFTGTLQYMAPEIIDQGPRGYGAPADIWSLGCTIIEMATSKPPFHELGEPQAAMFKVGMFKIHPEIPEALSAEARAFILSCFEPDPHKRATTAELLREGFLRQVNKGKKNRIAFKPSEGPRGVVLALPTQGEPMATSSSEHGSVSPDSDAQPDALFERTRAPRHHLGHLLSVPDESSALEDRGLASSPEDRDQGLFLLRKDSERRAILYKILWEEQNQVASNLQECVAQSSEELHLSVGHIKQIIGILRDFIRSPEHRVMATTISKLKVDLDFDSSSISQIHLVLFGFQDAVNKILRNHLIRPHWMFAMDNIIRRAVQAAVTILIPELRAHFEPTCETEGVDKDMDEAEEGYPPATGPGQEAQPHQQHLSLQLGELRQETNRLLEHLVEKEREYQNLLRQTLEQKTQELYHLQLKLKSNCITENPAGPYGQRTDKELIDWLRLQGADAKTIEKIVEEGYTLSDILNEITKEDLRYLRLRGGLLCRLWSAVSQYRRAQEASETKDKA

[2] = target: Cyclin-dependent kinase 17 (Homo sapiens) (UniProt Q00537); experiment: Inhibition of PCTAIRE2 Lys1 labeling site harbouring SKLTENLVALKEIR in human A-375 cells at 0.05 uM by KiNativ Profiling analysis relative to control; format: cell-based
[3] = target: T2, Inhibitor of nuclear factor kappa-B kinase subunit epsilon (Homo sapiens) (UniProt Q14164); experiment: Inhibition of IKKe Lys2 labeling site in human Huh-7 cell lysate at 1 uM by KiNativ Profiling analysis relative to control; format: subcellular
T2 sequence (whole entry): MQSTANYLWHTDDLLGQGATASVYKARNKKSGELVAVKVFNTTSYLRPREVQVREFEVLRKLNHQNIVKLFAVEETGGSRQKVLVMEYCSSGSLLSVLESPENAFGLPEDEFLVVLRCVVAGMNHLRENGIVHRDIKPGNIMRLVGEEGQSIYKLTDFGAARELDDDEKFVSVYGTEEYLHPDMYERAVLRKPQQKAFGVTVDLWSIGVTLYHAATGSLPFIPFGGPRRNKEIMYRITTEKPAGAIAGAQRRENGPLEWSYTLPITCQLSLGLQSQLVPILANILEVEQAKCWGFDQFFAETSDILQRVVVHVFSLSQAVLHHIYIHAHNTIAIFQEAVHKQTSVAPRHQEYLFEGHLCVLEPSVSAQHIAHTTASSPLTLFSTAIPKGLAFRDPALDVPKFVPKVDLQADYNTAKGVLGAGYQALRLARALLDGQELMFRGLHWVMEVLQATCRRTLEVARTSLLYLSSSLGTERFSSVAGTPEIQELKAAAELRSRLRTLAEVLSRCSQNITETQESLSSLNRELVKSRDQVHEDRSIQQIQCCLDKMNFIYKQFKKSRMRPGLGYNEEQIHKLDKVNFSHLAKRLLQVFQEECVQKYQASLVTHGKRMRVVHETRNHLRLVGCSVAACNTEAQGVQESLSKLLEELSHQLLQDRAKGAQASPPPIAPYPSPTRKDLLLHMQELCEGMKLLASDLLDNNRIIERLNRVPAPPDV

[4] = target: Cyclin-dependent kinase 2 (Homo sapiens) (UniProt P24941); experiment: Inhibition of CDK2 Lys1 labeling site in human Huh-7 cell lysate at 1 uM by KiNativ Profiling analysis relative to control; format: subcellular
[5] = target: Tyrosine-protein kinase Blk (Homo sapiens) (UniProt P51451); experiment: Inhibition of BLK (unknown origin) at 1 uM by Ambit Kinomescan binding assay relative to control; values are per cent of control
[6] = target: Casein kinase II subunit alpha' (Homo sapiens) (UniProt P19784); experiment: Inhibition of CSNK2A2 (unknown origin) at 1 uM by Ambit Kinomescan binding assay relative to control; values are per cent of control
[7] = target: Cyclin-dependent kinase 7 (Homo sapiens) (UniProt P50613); experiment: Inhibition of CDK7 Lys2 labeling site in human A-375 cells at 0.05 uM by KiNativ Profiling analysis relative to control; format: cell-based
Sequence of Cyclin-dependent kinase 7 (Homo sapiens) (P50613 whole entry): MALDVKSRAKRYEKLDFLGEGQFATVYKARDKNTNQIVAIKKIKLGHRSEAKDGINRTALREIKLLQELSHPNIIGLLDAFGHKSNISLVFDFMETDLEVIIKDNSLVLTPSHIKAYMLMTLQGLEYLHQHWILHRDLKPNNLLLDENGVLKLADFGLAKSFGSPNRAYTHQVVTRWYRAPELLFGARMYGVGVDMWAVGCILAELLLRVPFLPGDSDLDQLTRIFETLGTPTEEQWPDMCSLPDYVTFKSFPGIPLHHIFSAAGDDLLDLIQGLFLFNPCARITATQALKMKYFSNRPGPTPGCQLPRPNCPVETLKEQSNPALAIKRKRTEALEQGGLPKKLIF

Sequence of Casein kinase II subunit alpha' (Homo sapiens) (P19784 whole entry, looked up): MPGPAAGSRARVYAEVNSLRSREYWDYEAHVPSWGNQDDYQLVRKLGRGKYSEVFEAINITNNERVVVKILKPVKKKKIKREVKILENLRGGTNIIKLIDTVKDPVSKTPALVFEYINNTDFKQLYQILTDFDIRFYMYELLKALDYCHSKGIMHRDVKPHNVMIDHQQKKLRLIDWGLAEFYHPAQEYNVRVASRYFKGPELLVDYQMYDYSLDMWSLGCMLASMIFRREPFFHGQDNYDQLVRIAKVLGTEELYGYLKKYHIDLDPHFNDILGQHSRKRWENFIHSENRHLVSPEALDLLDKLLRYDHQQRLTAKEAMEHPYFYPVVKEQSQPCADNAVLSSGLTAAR
Sequence of Tyrosine-protein kinase Blk (Homo sapiens) (P51451 2-505 limits assumed): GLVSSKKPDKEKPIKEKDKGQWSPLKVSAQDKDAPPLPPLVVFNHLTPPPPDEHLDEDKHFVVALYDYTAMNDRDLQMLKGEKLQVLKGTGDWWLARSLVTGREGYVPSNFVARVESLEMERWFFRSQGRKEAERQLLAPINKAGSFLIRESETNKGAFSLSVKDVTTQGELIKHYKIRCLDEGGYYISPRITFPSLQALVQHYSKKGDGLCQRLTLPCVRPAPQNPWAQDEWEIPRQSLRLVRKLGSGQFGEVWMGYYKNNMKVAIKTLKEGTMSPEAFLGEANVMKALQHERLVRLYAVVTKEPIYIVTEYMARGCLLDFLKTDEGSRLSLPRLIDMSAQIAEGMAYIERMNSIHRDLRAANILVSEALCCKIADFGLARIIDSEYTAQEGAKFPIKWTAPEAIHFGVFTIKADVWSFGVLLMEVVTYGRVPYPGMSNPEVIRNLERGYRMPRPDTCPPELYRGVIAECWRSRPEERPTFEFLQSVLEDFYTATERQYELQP
Sequence of Cyclin-dependent kinase 17 (Homo sapiens) (Q00537 whole entry, looked up): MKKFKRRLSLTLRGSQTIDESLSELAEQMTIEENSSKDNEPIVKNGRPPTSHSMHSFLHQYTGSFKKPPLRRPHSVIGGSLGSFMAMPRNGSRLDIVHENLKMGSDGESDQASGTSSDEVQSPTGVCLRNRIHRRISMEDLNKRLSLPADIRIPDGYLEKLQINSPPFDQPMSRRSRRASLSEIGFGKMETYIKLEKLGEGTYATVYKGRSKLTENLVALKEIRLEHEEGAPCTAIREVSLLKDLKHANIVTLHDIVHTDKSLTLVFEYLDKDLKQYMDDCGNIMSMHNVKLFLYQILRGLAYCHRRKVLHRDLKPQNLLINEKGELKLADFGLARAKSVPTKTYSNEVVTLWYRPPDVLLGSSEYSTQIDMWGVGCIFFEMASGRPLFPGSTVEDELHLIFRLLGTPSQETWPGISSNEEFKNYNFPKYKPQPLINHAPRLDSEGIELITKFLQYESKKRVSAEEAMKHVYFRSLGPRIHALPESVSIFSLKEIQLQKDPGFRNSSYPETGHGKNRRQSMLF

CCN1CCN(Cc2ccc(NC(=O)c3ccc(C)c(Oc4ccnc5[nH]ccc45)c3)cc2C(F)(F)F)CC1
inhibition [1]: -3.3%
inhibition [2]: 2.5%

CNc1cc(Oc2cc(C(=O)Nc3cc(N4CCN(C)CC4)cc(C(F)(F)F)c3)ccc2C)ncn1
inhibition [3]: -5.8%
inhibition [4]: 17.7%

CCN1CCN(Cc2ccc(NC(=O)c3ccc(C)c(/C=C/c4cnc5[nH]ccc5c4OC)c3)cc2C(F)(F)F)CC1
residual activity [5]: 0.25%
residual activity [6]: 77%
inhibition [7]: 32.7%
